Experimental data from patent publication US10131652B2, “Pyrimidinyloxy benzene derivatives as herbicides” (E. I. DU PONT DE NEMOURS AND COMPANY, priority 2014, dated 2018).

Columns and labels:
Type in all cases: in vivo
soybean (Glycine max) = experiment: Test D pre-/postemergence plant response; conditions: Postemergence; for Plant response rating (scale 0 to 100), Soybean: 16 g ai/ha; for Plant response rating, Soybean: 125 g ai/ha
Procedure, shortened: (§1)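 Visual injury scoring (0–100) at 13 to 15 days in greenhouse. Preemergence sprays on seeded loam/sand; postemergence sprays on 1–4 leaf plants.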

[1] = test system: pigweed (Amaranthus retroflexus); experiment: Test D pre-/postemergence plant response; conditions: Postemergence; for Plant response rating (scale 0 to 100), Pigweed: 16 g ai/ha; for Plant response rating, Pigweed: 125 g ai/ha
Procedure, shortened: as §1

[2] = test system: barnyardgrass (Echinochloa crus-galli); experiment: Test D pre-/postemergence plant response; conditions: Postemergence; for Plant response rating (scale 0 to 100), Barnyardgrass: 16 g ai/ha; for Barnyardgrass plant response rating: 31 g ai/ha, scale 0 to 100 (0 no effect, 100 complete control); for Plant response rating, Barnyardgrass: scale 0 to 100, 0 no effect, 100 complete control
Procedure, shortened: as §1

[3] = test system: yellow nutsedge (Cyperus esculentus); experiment: Test D pre-/postemergence plant response; conditions: Postemergence; for Plant response rating (scale 0 to 100), Nutsedge, Yellow: 16 g ai/ha; for Plant response rating, Nutsedge, Yellow: 125 g ai/ha
Procedure, shortened: as §1

[4] = test system: large (Lg) crabgrass (Digitaria sanguinalis); experiment: Test D pre-/postemergence plant response; conditions: Postemergence; for Plant response rating (scale 0 to 100), Crabgrass, Large: 16 g ai/ha; for Crabgrass, Large plant response rating: 31 g ai/ha, scale 0 to 100 (0 no effect, 100 complete control); for Plant response rating, Crabgrass, Large: scale 0 to 100, 0 no effect, 100 complete control
Procedure, shortened: as §1

[5] = test system: johnsongrass (Sorghum halepense); experiment: Test D pre-/postemergence plant response; conditions: Postemergence; for Plant response rating (scale 0 to 100), Johnsongrass: 16 g ai/ha; for Johnsongrass plant response rating: 31 g ai/ha, scale 0 to 100 (0 no effect, 100 complete control); for Plant response rating, Johnsongrass: scale 0 to 100, 0 no effect, 100 complete control
Procedure, shortened: as §1

[6] = test system: morningglory (Ipomoea coccinea); experiment: Test D pre-/postemergence plant response; conditions: Postemergence; for Plant response rating (scale 0 to 100), Morningglory: 16 g ai/ha; for Plant response rating, Morningglory: 125 g ai/ha
Procedure, shortened: as §1

[7] = test system: blackgrass (Alopecurus myosuroides); experiment: Test D pre-/postemergence plant response; conditions: Postemergence; for Plant response rating (scale 0 to 100), Blackgrass: 16 g ai/ha; for Blackgrass plant response rating: 31 g ai/ha, scale 0 to 100 (0 no effect, 100 complete control); for Plant response rating, Blackgrass: scale 0 to 100, 0 no effect, 100 complete control
Procedure, shortened: as §1

[8] = test system: waterhemp (common waterhemp, Amaranthus rudis); experiment: Test D pre-/postemergence plant response; conditions: Postemergence; for Plant response rating (scale 0 to 100), Waterhemp: 16 g ai/ha; for Plant response rating, Waterhemp: 125 g ai/ha
Procedure, shortened: as §1

[9] = test system: ragweed (common ragweed, Ambrosia elatior); experiment: Test D pre-/postemergence plant response; conditions: Postemergence; for Plant response rating (scale 0 to 100), Ragweed: 16 g ai/ha; for Plant response rating, Ragweed: 125 g ai/ha
Procedure, shortened: as §1

[10] = test system: giant foxtail (Setaria faberii); experiment: Test D pre-/postemergence plant response; conditions: Postemergence; for Plant response rating (scale 0 to 100), Foxtail, Giant: 16 g ai/ha; for Foxtail, Giant plant response rating: 31 g ai/ha, scale 0 to 100 (0 no effect, 100 complete control); for Plant response rating, Foxtail, Giant: scale 0 to 100, 0 no effect, 100 complete control
Procedure, shortened: as §1

[11] = test system: pigweed (Amaranthus retroflexus); experiment: Test B pre-/postemergence plant response
Procedure, shortened: (§2)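 Seeds in loam–sand blend given preemergence soil spray; separately, plants at one- to two-leaf stage (2–10 cm) sprayed postemergence, compounds in non-phytotoxic solvent with surfactant. Injury rated visually versus untreated controls after ~10 days in greenhouse, 0 (no effect) to 100 (complete control).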

[12] = test system: barnyardgrass (Echinochloa crus-galli); experiment: Test B pre-/postemergence plant response
Procedure, shortened: as §2

[13] = test system: wheat (Triticum aestivum); experiment: Test B pre-/postemergence plant response
Procedure, shortened: as §2

corn (Zea mays) = experiment: Test B pre-/postemergence plant response
Procedure, shortened: as §2

[14] = test system: giant foxtail (Setaria faberii); experiment: Test B pre-/postemergence plant response
Procedure, shortened: as §2

[15] = 31 g ai/ha, scale 0 to 100 (0 no effect, 100 complete control)
[16] = 62 g ai/ha, scale 0 to 100, 0 no effect, 100 complete control
[17] = scale 0 to 100, 0 no effect, 100 complete control
[18] = 31 g ai/ha, Preemergence, 0 to 100 scale where 0 is no effect and 100 is complete control
[19] = 125 g ai/ha, postemergence, 0 to 100 scale, 0 no effect, 100 complete control
[20] = Postemergence, 31 g ai/ha, 0 to 100 scale (0 no effect, 100 complete control)
[21] = Preemergence, 125 g ai/ha, 0 to 100 scale (0 no effect, 100 complete control)

FCc1cc(-c2ccccc2Oc2ncc(Cl)cn2)on1 [Compound 224]
Plant response rating (scale 0 to 100), Soybean (soybean (Glycine max)): 35 | Soybean plant response rating (soybean (Glycine max); [15]): 40 | Soybean plant response rating (soybean (Glycine max); [16]): 65 | Plant response rating, Soybean (soybean (Glycine max); [17]): 75 | Plant response rating (scale 0 to 100), Pigweed [1]: 85 | Pigweed plant response rating [1, 15]: 85 | Pigweed plant response rating [1, 16]: 85 | Plant response rating, Pigweed [1, 17]: 90 | Plant response rating (scale 0 to 100), Barnyardgrass [2]: 5 | Barnyardgrass plant response rating [2]: 5 | Plant response rating, Barnyardgrass ([2]; 62 g ai/ha): 10 | Plant response rating, Barnyardgrass ([2]; 125 g ai/ha): 15 | Plant response rating (scale 0 to 100), Nutsedge, Yellow [3]: 0 | Nutsedge, Yellow plant response rating [3, 15]: 0 | Nutsedge, Yellow plant response rating [3, 16]: 5 | Plant response rating, Nutsedge, Yellow [3, 17]: 5 | Plant response rating (scale 0 to 100), Crabgrass, Large [4]: 5 | Crabgrass, Large plant response rating [4]: 5 | Plant response rating, Crabgrass, Large ([4]; 62 g ai/ha): 10 | Plant response rating, Crabgrass, Large ([4]; 125 g ai/ha): 10 | Plant response rating (scale 0 to 100), Johnsongrass [5]: 5 | Johnsongrass plant response rating [5]: 5 | Plant response rating, Johnsongrass ([5]; 62 g ai/ha): 5 | Plant response rating, Johnsongrass ([5]; 125 g ai/ha): 5 | Plant response rating (scale 0 to 100), Morningglory [6]: 15 | Morningglory plant response rating [6, 15]: 35 | Morningglory plant response rating [6, 16]: 35 | Plant response rating, Morningglory [6, 17]: 80 | Plant response rating (scale 0 to 100), Blackgrass [7]: 0 | Blackgrass plant response rating [7]: 0 | Plant response rating, Blackgrass ([7]; 62 g ai/ha): 5 | Plant response rating, Blackgrass ([7]; 125 g ai/ha): 0 | Plant response rating (scale 0 to 100), Waterhemp [8]: 70 | Waterhemp plant response rating [8, 15]: 75 | Waterhemp plant response rating [8, 16]: 85 | Plant response rating, Waterhemp [8, 17]: 85 | Plant response rating (scale 0 to 100), Ragweed [9]: 30 | Ragweed plant response rating [9, 15]: 55 | Ragweed plant response rating [9, 16]: 55 | Plant response rating, Ragweed [9, 17]: 70 | Plant response rating (scale 0 to 100), Foxtail, Giant [10]: 0 | Foxtail, Giant plant response rating [10]: 5 | Plant response rating, Foxtail, Giant ([10]; 62 g ai/ha): 5 | Plant response rating, Foxtail, Giant ([10]; 125 g ai/ha): 40 | Plant response rating, Pigweed [11, 18]: 90 | Plant response rating, Pigweed [11, 19]: 100 | Plant response rating, Pigweed [11, 20]: 70 | Pigweed plant response rating [11, 21]: 100 | Plant response rating, Barnyardgrass [12, 18]: 10 | Plant response rating, Barnyardgrass [12, 19]: 50 | Plant response rating, Barnyardgrass [12, 20]: 30 | Barnyardgrass plant response rating [12, 21]: 50 | Plant response rating, Wheat [13, 19]: 0 | Plant response rating, Wheat [13, 20]: 0 | Plant response rating, Corn (corn (Zea mays); [19]): 20 | Plant response rating, Corn (corn (Zea mays); [20]): 0 | Plant response rating, Foxtail, Giant [14, 18]: 40 | Plant response rating, Foxtail, Giant [14, 19]: 50 | Plant response rating, Foxtail, Giant [14, 20]: 20 | Foxtail, Giant plant response rating [14, 21]: 90

Fc1cccc(Oc2ncc(Cl)cn2)c1-c1cc(C(F)(F)F)no1 [Compound 228]
Plant response rating (scale 0 to 100), Soybean (soybean (Glycine max)): 60 | Soybean plant response rating (soybean (Glycine max); [15]): 55 | Soybean plant response rating (soybean (Glycine max); [16]): 80 | Plant response rating, Soybean (soybean (Glycine max); [17]): 80 | Plant response rating (scale 0 to 100), Pigweed [1]: 85 | Pigweed plant response rating [1, 15]: 95 | Pigweed plant response rating [1, 16]: 95 | Plant response rating, Pigweed [1, 17]: 98 | Plant response rating (scale 0 to 100), Barnyardgrass [2]: 15 | Barnyardgrass plant response rating [2]: 20 | Plant response rating, Barnyardgrass ([2]; 62 g ai/ha): 20 | Plant response rating, Barnyardgrass ([2]; 125 g ai/ha): 35 | Plant response rating (scale 0 to 100), Nutsedge, Yellow [3]: 5 | Nutsedge, Yellow plant response rating [3, 15]: 5 | Nutsedge, Yellow plant response rating [3, 16]: 5 | Plant response rating, Nutsedge, Yellow [3, 17]: 10 | Plant response rating (scale 0 to 100), Crabgrass, Large [4]: 15 | Crabgrass, Large plant response rating [4]: 20 | Plant response rating, Crabgrass, Large ([4]; 62 g ai/ha): 35 | Plant response rating, Crabgrass, Large ([4]; 125 g ai/ha): 45 | Plant response rating (scale 0 to 100), Johnsongrass [5]: 10 | Johnsongrass plant response rating [5]: 10 | Plant response rating, Johnsongrass ([5]; 62 g ai/ha): 25 | Plant response rating, Johnsongrass ([5]; 125 g ai/ha): 60 | Plant response rating (scale 0 to 100), Morningglory [6]: 65 | Morningglory plant response rating [6, 15]: 65 | Morningglory plant response rating [6, 16]: 80 | Plant response rating, Morningglory [6, 17]: 75 | Plant response rating (scale 0 to 100), Blackgrass [7]: 15 | Blackgrass plant response rating [7]: 15 | Plant response rating, Blackgrass ([7]; 62 g ai/ha): 25 | Plant response rating, Blackgrass ([7]; 125 g ai/ha): 35 | Plant response rating (scale 0 to 100), Waterhemp [8]: 90 | Waterhemp plant response rating [8, 15]: 95 | Waterhemp plant response rating [8, 16]: 95 | Plant response rating, Waterhemp [8, 17]: 100 | Plant response rating (scale 0 to 100), Ragweed [9]: 20 | Ragweed plant response rating [9, 15]: 35 | Ragweed plant response rating [9, 16]: 60 | Plant response rating, Ragweed [9, 17]: 60 | Plant response rating (scale 0 to 100), Foxtail, Giant [10]: 10 | Foxtail, Giant plant response rating [10]: 10 | Plant response rating, Foxtail, Giant ([10]; 62 g ai/ha): 20 | Plant response rating, Foxtail, Giant ([10]; 125 g ai/ha): 40 | Plant response rating, Pigweed [11, 18]: 100 | Plant response rating, Pigweed [11, 19]: 100 | Plant response rating, Pigweed [11, 20]: 100 | Pigweed plant response rating [11, 21]: 100 | Plant response rating, Barnyardgrass [12, 18]: 50 | Plant response rating, Barnyardgrass [12, 19]: 70 | Plant response rating, Barnyardgrass [12, 20]: 30 | Barnyardgrass plant response rating [12, 21]: 100 | Plant response rating, Wheat [13, 19]: 50 | Plant response rating, Wheat [13, 20]: 0 | Plant response rating, Corn (corn (Zea mays); [19]): 30 | Plant response rating, Corn (corn (Zea mays); [20]): 20 | Plant response rating, Foxtail, Giant [14, 18]: 90 | Plant response rating, Foxtail, Giant [14, 19]: 90 | Plant response rating, Foxtail, Giant [14, 20]: 40 | Foxtail, Giant plant response rating [14, 21]: 100
